Assays:
Type in all cases: cell-based, human
HCT116 cells = test: colony formation (clonogenic survival) assay, HCT116 cells; settings: for colony survival, RIF1-L cells: HCT116 expressing only RIF1-L, versus RIF1-WT; for colony survival, RIF1-S cells: HCT116 expressing only RIF1-S, versus RIF1-KO
Method: For HCT116-derived cells, cells were plated in 6-well plates at 250 cells/well, in triplicate for each drug concentration. Cells were incubated with drugs for 24 h, after which drug-containing medium was replaced with drug-free medium. Seven days later colony counting was performed using a Nikon Eclipse TS100 microscope. For the IR sensitivity test, cells were plated following the same procedure, then irradiated at desired doses and incubated for 7 days before colony counting. Clusters with more than 20 cells were counted as colonies. Mean and standard error of each triplicate was calculated.

[1] = test system: RIF1-BRCA1 proximity in RPE-1 cells; test: RIF1-BRCA1 proximity ligation assay, RPE-1 cells
Method: (§1) Proximity ligation assays were performed using the Duolink In Situ PLA Fluorescence Protocol (Sigma-Aldrich, DUO92101) following the manufacturer’s instruction. Cells were grown on glass coverslips and treated as indicated for specific experiments. Cells were then permeabilized with 0.5% TritonX-100 in PBS for 10 min on ice, and fixed with 3% formaldehyde, 2% sucrose in PBS for 10 min at room temperature (RT). After fixation, coverslips were blocked in 3% BSA in PBS for 1 h at RT and incubated with primary antibodies (anti-RIF1, Bethel laboratories A300-568A, 1:1000 dilution; anti-BRCA1, Santa Cruz Biotechnologies, sc-6954, 1:200 dilution), for 1 h at RT in a humidity chamber. Primary antibodies were then washed off with PLA washing buffer A supplied in the Duolink In Situ PLA kit. Coverslips were next incubated sequentially with PLA Probes (1 h at 37 °C), ligation solution (30 min at 37 °C) and amplification solution (100 min at 37 °C), with washes by washing buffer A in between each step. At the end of incubation, coverslips were washed with washing buffer B supplied in the Duolink In Situ PLA kit. Coverslips were then mounted on glass slides with PLA Mounting medium with DAPI. Images were captured by fluorescence microscopy (Zeiss Axio Imager). PLA foci number in each nucleus were analysed by CellProfiler Software[74] with a custom-made pipeline.
For EdU labelling combined with proximity ligation assay, cells were labelled with 10 µM EdU for 15 min, washed free of EdU and next incubated with medium containing 4 mM HU medium for 4 h. Cells were then permeabilized, fixed and subjected to RIF1-BRCA1 PLA procedures. After all PLA steps, EdU detection was performed following manufacturer’s instructions in the Click-iT EdU Imaging Kit (Invitrogen, C10640).
(§2) For proximity ligation assays and immunofluorescence signal intensity measurements, when comparing between two samples, statistical significance of differences was calculated by Mann-Whitney test for non-parametric distributions using GraphPad Prism software (v.9). When comparing among three or more samples, p values were calculated by Kruskal-Wallis test for non-parametric distributions with Dunn’s multiple comparisons using GraphPad Prism software (v.9). For RIF1 foci formation analysis (Fig. 6B), p values were calculated by two-tailed Student’s t test. For nuclear BRCA1 intensity fold change analyses (Fig. 6C, D), p values were calculated by two-tailed one-sample t test using GraphPad Prism software (v.9). For RAD51 foci formation analyses (Fig. 7B, E and Supplementary Fig. 7B), p values were calculated by chi-square test. For HR Reporter assay analysis (Fig. 7G and Supplementary Fig. 7L), p values were calculated by two-tailed paired Student’s t test. For micronuclei frequency analysis (Fig. 7H), p values were calculated by one-tailed paired Student’s t test. All Student’s t tests were performed with Excel T.TEST function. Chi-square tests were performed with the online Chi-square test calculator at https://www.socscistatistics.com/tests/chisquare2/default2.aspx. Sample number n for all box-and-whisker plots and dot plots are listed in Supplementary Data 1.

[2] = test system: RIF1-BRCA1 proximity in HeLa cells; test: RIF1-BRCA1 proximity ligation assay, HeLa cells; settings: HeLa +RIF1-L
Method: as §1, §2

[3] = Fig S4I, ATMi (KU-60019) 2µM + HU 4mM 24hr
[4] = Fig S4J, DNA-PKi (NU-7441) 1µM + HU 4mM 24hr

Structure (SMILES): C[C@@]1(CO)[C@H](O)CC[C@@]2(C)[C@H]1CC[C@H]1C[C@@H]3C[C@@]12CC[C@]3(O)CO [APH, aphidicolin]
- colony survival, RIF1-L cells (HCT116 cells): RIF1-L conferred resistance comparable to RIF1-WT
- colony survival, RIF1-S cells (HCT116 cells): exhibited hypersensitivity to these drugs similar to RIF1-KO cells
- RIF1-BRCA1 PLA foci ([1]; APH 4 µM 24 h): also induced PLA foci
- RIF1-BRCA1 PLA foci per nucleus, mean ([1]; Fig 3C, APH 4 µM 24 h): 1.540
- RIF1-BRCA1 PLA foci per nucleus, median ([1]; Fig 3C, APH 4 µM 24 h): 1

Structure (SMILES): CC[C@@]1(O)C(=O)OCc2c1cc1n(c2=O)Cc2cc3ccccc3nc2-1 [CPT, camptothecin]
- colony survival, RIF1-L cells (HCT116 cells): RIF1-L conferred resistance comparable to RIF1-WT
- colony survival, RIF1-S cells (HCT116 cells): exhibited hypersensitivity to these drugs similar to RIF1-KO cells
- RIF1-BRCA1 PLA foci ([1]; CPT 100 nM 24 h): also induced PLA foci
- RIF1-BRCA1 PLA foci per nucleus, mean ([1]; Fig 3C, CPT 100 nM 24 h): 4.982
- RIF1-BRCA1 PLA foci per nucleus, median ([1]; Fig 3C, CPT 100 nM 24 h): 4

Structure (SMILES): C[C@@H]1CN(CC(=O)Nc2ccc3c(c2)Cc2cccc(-c4cc(=O)cc(N5CCOCC5)o4)c2S3)C[C@H](C)O1 [KU-60019]
- RIF1-BRCA1 PLA foci per nucleus, mean [2, 3]: 18.33
- RIF1-BRCA1 PLA foci per nucleus, median [2, 3]: 2, 17, 17
- RIF1-BRCA1 PLA ([2]; ATMi (KU-60019) 2 µM 24 h + HU 4 mM 24 h): no apparent effect

Structure (SMILES): O=c1cc(N2CCOCC2)oc2c(-c3cccc4c3sc3ccccc34)cccc12 [NU-7441]
- RIF1-BRCA1 PLA ([1]; DNA-PKi (NU-7441) 1 µM 24 h + HU 4 mM 24 h): no apparent effect
- RIF1-BRCA1 PLA foci per nucleus, mean [1, 4]: 7.597
- RIF1-BRCA1 PLA foci per nucleus, median [1, 4]: 0, 5, 5

Reference: publication PMC12214830, “The human RIF1-Long isoform interacts with BRCA1 to promote recombinational fork repair under DNA replication stress” (Nature Communications, 2025)
